Laboratory results: patent US12291513B2, “Pyridinium derivatives made by hydrothermal synthesis for use as anolytes in electrochemical cells” (Wisconsin Alumni Research Foundation, priority 2021, dated 2025)
Read-outs that look alike come from different tables or passages of the source. Marks after values point to notes of the source that are not given here.

Legend:
Solubility in pure water = type: physicochemical; conditions: Example 2
Protocol: A measured amount of Dex-Vi was partially dissolved in pure water. The solution was then centrifuged. The supernatant was decanted, and the volume was measured. The remainder of the solid was dried in a vacuum oven and weighed. Finally, the weight of the remaining Dex-Vi was subtracted from the initial added mass to obtain the amount dissolved in the supernatant, permitting calculation of the maximum soluble concentration.

[1] = Electrochemical impedance spectroscopy (EIS); type: physicochemical; conditions: for EIS D / EIS i^0 / EIS k^0: Example 2
Protocol: (§1) CV and EIS experiments were ran using a PalmSens4 potentiostat with the PSTrace software. Electrochemical experiments were performed in 1.0 M NaCl supporting electrolyte using 15 mM of active material at room temperature (18° C.). Formal potentials for the redox couples were estimated by taking the average potential between the cathodic and anodic peak. Diffusional behavior was investigated by varying the scan rate between 10-100 mV·s^−1 for the first electron reduction and 50-200 mV·s^−1 for the second electron reduction, and the diffusion constants of the reduced and oxidized states (D^R and D^O) were determined via the Randles-Sevcik equation assuming ideal reversible behavior (FIG. 12D). Potentiostatic EIS measurements were used for determination of a combined diffusional constant of the reduced and oxidized states (D^EIS) and of the standard electron kinetic rate constant (k^o). These EIS measurements were performed at the formal reduction potential (held for 30 seconds before measurement) in which the concentration of the two redox states at the electrode surface were assumed to be the same and equal to half of the initially prepared redox species concentration.
(§2) A glassy carbon working electrode (CH Instruments, 0.0707 cm^2), a saturated calomel reference electrode (SCE, CH Instruments, +0.241 V vs. SHE), and a platinum wire counter electrode were used for both CV and EIS measurements. The working electrode was polished with 1 μm, 0.3 μm, and 0.05 μm alumina slurry successively. All electrodes were rinsed with deionized water in between measurements.
Potentiostatic EIS measurements were taken at the formal potential in which the reduction and oxidation processes are at equilibrium and the concentrations of the reduced and oxidized states can be assumed equal. This permitted simple calculation of the standard kinetic rate constant (k^o) via Eqn. 2 where R is the ideal gas constant, T is temperature, n is number of electrons, RCT is the charge-transfer resistance, F is Faraday's constant, A is the electrode surface area in cm^2, and C is the concentration of either the oxidized or reduced form at the electrode surface in mole cm^−3 (which is assumed to be half of the initially prepared redox species concentration, C═C^O═C^R=0.5 Cinitial).
A combined diffusion coefficient of the reduced and oxidized state (D^EIS) can also be determined using Eqn. 3, where σ is the Warburg diffusional impedance variable and all other variables have the previously defined meaning.
RCT and σ can be determined by fitting the impedance spectrum to the ideal Randles equivalent circuit for a 3-electrode system where Ru is the uncompensated resistance between the working and reference electrode, RCT is the charge transfer resistance between the working electrode and the redox species, WD is the Warburg diffusional element, and CPE is the constant phase element that represents capacitive behavior of the working electrode.
The raw data was fitted based on this equivalent circuit using the Z-Fitting tool on the PSTrace software and with the Levenberg-Marquardt algorithm across the entire measured frequency range. For the second redox state, D2^EIS were 3.6×10^−6 cm^2·s^−1 and 3.8×10^−6 cm^2·s^−1 and k2^o were 0.13 cm·s^−1 and 0.23 cm·s^−1 for Dex-Vi and BTMAP-Vi, respectively.

Viscosity (rheometer) = type: physicochemical; conditions: 1M, 25° C.
Protocol: Viscosity measurements were carried out using an Ares G2 rheometer (TA Instruments) with an advanced Peltier system at 25° C.

[2] = Table 1, MV; cited from earlier work
[3] = Table 1, MV; cited from earlier work; remark: listed apart in the source
[4] = cited from earlier work; for Anolyte-limiting RFB Stability / RFB Viologen Molarity (1e^−): Table 1, comparison anolytes
[5] = Cyclic voltammetry (formal potentials, Randles-Sevcik diffusion coefficients); type: physicochemical
Protocol: as §1, §2
CVs were taken at various scan rates in order to determine the diffusion coefficients via the Randles-Sevcik relation (Eqn. 1) where ip is the peak current in Amps, n is number of electrons transferred, F is Faraday's constant, A is electrode surface area in cm^2, C is the redox species concentration in mole·cm^−3, R is the ideal gas constant, T is temperature, D is the diffusion coefficient, and v is scan rate in V/s. The anodic peak current […] determines the diffusion coefficient of the reduced state (D^R) while the cathodic peak current (ip,a) determines the diffusion coefficient of the oxidized state (D^O). ip=0.4463n^3/2·F^3/2·A·C·R^−1/2·T^−1/2·D^1/2·v^1/2 Eqn. 1

[6] = Selemion DSV membrane; cited from earlier work
[7] = same electrolyte conditions; cited from earlier work
Degradation in 1M KOH = type: physicochemical

With `O=S(=O)([O-])CC[n+]1ccc(-c2cc[n+](CCS(=O)(=O)[O-])cc2)cc1` [EtS-Vi] the “Water Solubility” value (Solubility in pure water) was 530 mM, the “EIS D” value [1] was 5.2921E−06 cm^2/s and the “EIS i^0” value [1] was 3.47E−03 A. For the same compound, the “EIS k^0” value [1] was 0.0677 cm/s.

For `OCCCC[n+]1ccc(-c2cc[n+](CCCCO)cc2)cc1.[Cl-].[Cl-]` [ButOH-Vi], the “Water Solubility” value (Solubility in pure water) was 1360 mM, the “Viscosity at 1M, 25° C.” value (Viscosity (rheometer)) was 1.6 cP and the “EIS D” value [1] was 2.36E−05 cm^2/s. The “EIS i^0” value [1] was 1.25E−05 A and the “EIS k^0” value [1] was 0.000244 cm/s.

In the case of `C[n+]1ccc(-c2cc[n+](C)cc2)cc1` [MV], the “E1^0” value [2] is listed as −0.450/NA V vs. SHE, the “k1^0” value [3] is listed as 0.00028 cm/s and the “Anolyte-limiting RFB Stability” value [4] is listed as over 547.5%* % decay/year. For the same compound, the “RFB Viologen Molarity (1e^−)” value [4] was 0.5.

For `C[N+](C)(C)CCC[n+]1ccc(-c2cc[n+](CCC[N+](C)(C)C)cc2)cc1.[Cl-].[Cl-].[Cl-].[Cl-]` [BTMAP-Vi, bis(3-trimethylammonio)propyl viologen tetrachloride, reference compound], the “first electron formal potential (E1^0)” value ([5]; 15 mM in 1.0 M NaCl, 18° C.) was −0.349 V vs. SHE, the “E1^0” value ([5]; Table 1) was −0.349 V vs. SHE and the “E2^0” value ([5]; Table 1) was −0.713 V vs. SHE. For the same compound, the “reduced state diffusion coefficient (D1^R)” value ([5]; first redox state, 3+ species) was 2.7×10^−6 cm^2·s^−1, the “oxidized state diffusion coefficient (D1^O)” value ([5]; first redox state, 4+ species) was 2.4×10^−6 cm^2·s^−1 and the “D2^O” value ([5]; second redox state) was 2.3×10^−6 cm^2·s^−1. For the same compound, the “D2^R” value ([5]; second redox state) was 2.5×10^−6 cm^2·s^−1, the “second electron formal potential (E2^0)” value ([5]; vs. SHE, 15 mM in 1.0 M NaCl, 18° C.) was −0.713 V and the “k1^0” value ([1]; Table 1) was 0.089 cm/s. For the same compound, the “combined diffusion coefficient (D1^EIS)” value ([1]; first reduction) was 4.1×10^−6 cm^2·s^−1, the “standard rate constant (k1^0)” value ([1]; first reduction) was 0.089 cm/s and the “D2^EIS” value ([1]; second redox state) was 3.8×10^−6 cm^2·s^−1. The “k2^o” value ([1]; second redox state) was 0.23 cm/s, the “permeance, reported value” [6] was 6.7×10^−10 cm^2·s^−1 and the “reported symmetric cell decay rate” value [7] was 0.0016 % per day. The “reported concentration when both electrons are utilized” value ([4]; DeBruler et al., 2017) was 0.25 M, the “Anolyte-limiting RFB Stability” value [4] was 36.5% decay/year and the “RFB Viologen Molarity (1e^−)” value [4] was 1.5.

With `O=S(=O)([O-])CC[n+]1ccc(-c2cc[n+](CC(O)CO)cc2)cc1.[Cl-]` (centres unmarked) [DiOH-EtS-Vi] the “Water Solubility” value (Solubility in pure water) was 1260 mM, the “Viscosity at 1M, 25° C.” value (Viscosity (rheometer)) was 2.9 cP and the “EIS D” value [1] was 8.134E−06 cm^2/s. For the same compound, the “EIS i^0” value [1] was 7.76E−03 A, the “EIS k^0” value [1] was 0.152 cm/s and the “Degradation in 1M KOH, k” value (Degradation in 1M KOH) was 4.4e-06 s⁻¹.

For `OCC[n+]1ccc(-c2cc[n+](CCO)cc2)cc1.[Cl-].[Cl-]` [EtOH-Vi], the “Water Solubility” value (Solubility in pure water) was 2510 mM, the “Viscosity at 1M, 25° C.” value (Viscosity (rheometer)) was 2.4 cP and the “EIS D” value [1] was 9.868E−06 cm^2/s. For the same compound, the “EIS i^0” value [1] was 4.53E−03 A and the “EIS k^0” value [1] was 0.0885 cm/s.

In the case of `OCC(O)C[n+]1ccc(-c2cc[n+](CC(O)CO)cc2)cc1.[Cl-].[Cl-]` (centres unmarked) [DiOH-Vi], the “Water Solubility” value (Solubility in pure water) is reported as 1990 mM, the “Viscosity at 1M, 25° C.” value (Viscosity (rheometer)) is reported as 3.0 cP and the “EIS D” value [1] is reported as 6.622E−06 cm^2/s. For the same compound, the “EIS i^0” value [1] was 1.14E−03 A, the “EIS k^0” value [1] was 0.0222 cm/s and the “Degradation in 1M KOH, k” value (Degradation in 1M KOH) was 2.296e-06 s⁻¹.

In the case of `C[N+](C)(C)CC(O)C[n+]1ccc(-c2cc[n+](CC(O)CS(=O)(=O)[O-])cc2)cc1.[Cl-].[Cl-]` (centres unmarked) [Dex-SHOP-Vi], the “Water Solubility” value (Solubility in pure water) is reported as 1270 mM, the “EIS D” value [1] is reported as 4.497E−06 cm^2/s and the “EIS i^0” value [1] is reported as 1.57E−03 A. The “EIS k^0” value [1] was 0.0307 cm/s.

With `O=S(=O)([O-])CC(O)C[n+]1ccc(-c2cc[n+](CC(O)CO)cc2)cc1.[Cl-]` (centres unmarked) [DiOH-SHOP-Vi] the “Water Solubility” value (Solubility in pure water) was under 500 mM, the “EIS D” value [1] was 5.419E−06 cm^2/s and the “EIS i^0” value [1] was 4.06E−03 A. For the same compound, the “EIS k^0” value [1] was 0.0794 cm/s.

In the case of `C[N+](C)(C)CC(O)C[n+]1ccc(-c2cc[n+](CC(O)CO)cc2)cc1.[Cl-].[Cl-].[Cl-]` (centres unmarked) [Dex-DiOH-Vi], the “Water Solubility” value (Solubility in pure water) is reported as 1730 mM, the “Viscosity at 1M, 25° C.” value (Viscosity (rheometer)) is reported as 3.9 cP and the “EIS D” value [1] is reported as 5.562E−06 cm^2/s. For the same compound, the “EIS i^0” value [1] was 6.20E−03 A, the “EIS k^0” value [1] was 0.121 cm/s and the “Degradation in 1M KOH, k” value (Degradation in 1M KOH) was 4.06e-06 s⁻¹.
